Measurements reported in ChEMBL document CHEMBL1201862, “PubChem BioAssay data set” (2004).
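Five concentrations, 48 hours, 96-well plates. Abbreviation: GI50, concentration required for 50% inhibition of growth.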 Active and inactive are the calls of the source. Cut-off read from the data, not from the text of the source: active = GI50 up to about 1.1 µM and inactive = higher.

What was measured:
Assay in all cases: NCI tumour cell line growth inhibition, 48 h
SK-MEL-28 = system: SK-MEL-28
EKVX = system: EKVX
OVCAR-3 = system: OVCAR-3
UO-31 = system: UO-31
RXF 393 = system: RXF 393
UACC-257 = system: UACC-257
UACC-62 = system: UACC-62
HL-60 = system: HL-60
786-0 = system: 786-0
HCT-15 = system: HCT-15
SNB-19 = system: SNB-19
K562 = system: K562
HCT-116 = system: HCT-116
OVCAR-4 = system: OVCAR-4
CCRF-CEM = system: CCRF-CEM
MCF7 = system: MCF7
A498 = system: A498
SW-620 = system: SW-620
SF-539 = system: SF-539

SMILES	GI50 (SK-MEL-28)	GI50 (EKVX)	GI50 (OVCAR-3)	GI50 (UO-31)	GI50 (RXF 393)	GI50 (UACC-257)	GI50 (UACC-62)	GI50 (HL-60)	GI50 (786-0)	GI50 (HCT-15) [µM]	GI50 (SNB-19)	GI50 (K562)	GI50 (HCT-116)	GI50 (OVCAR-4)	GI50 (CCRF-CEM)	GI50 (MCF7)	GI50 (A498)	GI50 (SW-620)	GI50 (SF-539)
S=C(S)NCCN1CCNCC1	> 100 µM (inactive)	57.1 µM (inactive)	22.4 µM (inactive)	29.7 µM (inactive)	19.8 µM (inactive)	20.7 µM (inactive)	84.9 µM (inactive)	< 0.01 µM (active)	22.3 µM (inactive)	47.8	> 100 µM (inactive)	24.4 µM (inactive)	27.9 µM (inactive)	> 100 µM (inactive)	21.1 µM (inactive)	40 µM (inactive)	> 100 µM (inactive)	20.7 µM (inactive)	
O=S(=O)(c1ccccc1)N1CN2CN(C1)CN(S(=O)(=O)c1ccccc1)C2	> 100 µM (inactive)	> 100 µM (inactive)	> 100 µM (inactive)	> 100 µM (inactive)	55.7 µM (inactive)	> 100 µM (inactive)	> 100 µM (inactive)	26.6 µM (inactive)	> 100 µM (inactive)	> 100	> 100 µM (inactive)	> 100 µM (inactive)	> 100 µM (inactive)	> 100 µM (inactive)		> 100 µM (inactive)	> 100 µM (inactive)	> 100 µM (inactive)	> 100 µM (inactive)
CCOC(=O)c1cc(C2=C(S)N(CC(C)CC)CC2)c(C(=O)CC)[nH]1 (stereo not given)	19.5 µM (inactive)	17.5 µM (inactive)		16.8 µM (inactive)	20.7 µM (inactive)	17.4 µM (inactive)	16.6 µM (inactive)	5.36 µM (inactive)	16.9 µM (inactive)	10.2	19.1 µM (inactive)	10 µM (inactive)	15.3 µM (inactive)	14.5 µM (inactive)	4.28 µM (inactive)	21.3 µM (inactive)	15.6 µM (inactive)	6.01 µM (inactive)	12 µM (inactive)
Cc1ccc(Nc2nc(C)c(C(=O)CC(=O)C(=O)Nc3ccc(Cl)cc3)s2)cc1	> 100 µM (inactive)	> 100 µM (inactive)	> 100 µM (inactive)	> 100 µM (inactive)	> 100 µM (inactive)	> 100 µM (inactive)	> 100 µM (inactive)	> 100 µM (inactive)	> 100 µM (inactive)	> 100	> 100 µM (inactive)	> 100 µM (inactive)	> 100 µM (inactive)		> 100 µM (inactive)	> 100 µM (inactive)	> 100 µM (inactive)	> 100 µM (inactive)	> 100 µM (inactive)
O=C(c1ccccc1)c1ccc2[nH]c(-c3c(Cl)c(Cl)c(Cl)c(Cl)c3-c3nnc(-c4ccccc4)o3)nc2c1	> 100 µM (inactive)	54.1 µM (inactive)	13.8 µM (inactive)	49.3 µM (inactive)	5.47 µM (inactive)	80.2 µM (inactive)		11.5 µM (inactive)	36.6 µM (inactive)	7.01	56.9 µM (inactive)	4.67 µM (inactive)	27.4 µM (inactive)	20.7 µM (inactive)	46.3 µM (inactive)	9.79 µM (inactive)	12.1 µM (inactive)	29.7 µM (inactive)	19.4 µM (inactive)
CC(C)NCC(O)c1ccc(O)c2ncccc12 (stereo not given)	> 100 µM (inactive)	49.3 µM (inactive)	16 µM (inactive)	67.6 µM (inactive)	91 µM (inactive)	50 µM (inactive)	60 µM (inactive)	24.6 µM (inactive)	45.5 µM (inactive)	25.9	> 100 µM (inactive)	19.5 µM (inactive)	26.4 µM (inactive)	68.5 µM (inactive)		7.28 µM (inactive)	> 100 µM (inactive)	36.5 µM (inactive)	43 µM (inactive)
CC1(O)Oc2ccc3ccccc3c2C=C1C(N)=O (stereo not given)	> 100 µM (inactive)	54 µM (inactive)		> 100 µM (inactive)	49.2 µM (inactive)	> 100 µM (inactive)	> 100 µM (inactive)	> 100 µM (inactive)	> 100 µM (inactive)	53.7	> 100 µM (inactive)	> 100 µM (inactive)	> 100 µM (inactive)	72.9 µM (inactive)	86.5 µM (inactive)	> 100 µM (inactive)	28.1 µM (inactive)	> 100 µM (inactive)	42.1 µM (inactive)
Cc1cc2c(cc1-c1cc3c(cc1C)C(C(C)C)=C(O)C(=O)/C3=C\Nc1c3ccccc3nc3ccccc13)/C(=C/Nc1c3ccccc3nc3ccccc13)C(=O)C(O)=C2C(C)C	7.03 µM (inactive)	1.75 µM (inactive)	3.47 µM (inactive)	3.03 µM (inactive)	5.24 µM (inactive)	4.34 µM (inactive)	3.66 µM (inactive)	2.78 µM (inactive)	2.72 µM (inactive)	3.85	3.82 µM (inactive)		6.25 µM (inactive)	3.15 µM (inactive)	3.51 µM (inactive)	3.17 µM (inactive)	7.03 µM (inactive)	2.9 µM (inactive)	3.86 µM (inactive)
Cc1cc(C)c(N[S+]([O-])c2cccc(Cl)c2)c(C)c1 (stereo not given)	> 100 µM (inactive)	> 100 µM (inactive)	> 100 µM (inactive)	> 100 µM (inactive)	> 100 µM (inactive)	> 100 µM (inactive)		> 100 µM (inactive)	> 100 µM (inactive)	> 100	> 100 µM (inactive)	> 100 µM (inactive)	> 100 µM (inactive)		> 100 µM (inactive)	> 100 µM (inactive)	29.2 µM (inactive)	> 100 µM (inactive)	> 100 µM (inactive)
CN1CCC2(c3ccccc3)CC(=O)/C(=C/c3ccc(Cl)c(Cl)c3)C1C2.[O-][Cl+3]([O-])([O-])O (stereo not given)	2.1 µM (inactive)	2.94 µM (inactive)	2.9 µM (inactive)	1.95 µM (inactive)	2.61 µM (inactive)	9.46 µM (inactive)	1.51 µM (inactive)	0.333 µM (active)	2.37 µM (inactive)	2.14	2.3 µM (inactive)	2.52 µM (inactive)	2.62 µM (inactive)	2.51 µM (inactive)	2.02 µM (inactive)	3.4 µM (inactive)	5.2 µM (inactive)	2.59 µM (inactive)	1.98 µM (inactive)
CSc1nc(-c2ccccc2)nc(C(C#N)C#N)n1	> 100 µM (inactive)	> 100 µM (inactive)	> 100 µM (inactive)	61.2 µM (inactive)	> 100 µM (inactive)	> 100 µM (inactive)	> 100 µM (inactive)	> 100 µM (inactive)	> 100 µM (inactive)	> 100	> 100 µM (inactive)		> 100 µM (inactive)	> 100 µM (inactive)	> 100 µM (inactive)	> 100 µM (inactive)	> 100 µM (inactive)	> 100 µM (inactive)	> 100 µM (inactive)
COc1cc(/C=N/c2nc3cc4sc(/N=C/c5cc(OC)c(OC)c(OC)c5)nc4cc3s2)cc(OC)c1OC	21.7 µM (inactive)	42 µM (inactive)	32.7 µM (inactive)	62.8 µM (inactive)	> 100 µM (inactive)	73.6 µM (inactive)	67.1 µM (inactive)	57.1 µM (inactive)	49.2 µM (inactive)	55.2	> 100 µM (inactive)	50.1 µM (inactive)	39.4 µM (inactive)	> 100 µM (inactive)		53.8 µM (inactive)	> 100 µM (inactive)	33.1 µM (inactive)	17.9 µM (inactive)
C[N+](C)(C)CC(=O)N/N=C(\Cc1nc2ccc([N+](=O)[O-])cc2nc1O)C(=O)Nc1nc2ccc([N+](=O)[O-])cc2s1	> 100 µM (inactive)	25 µM (inactive)	31.8 µM (inactive)	25.7 µM (inactive)	41.3 µM (inactive)	> 100 µM (inactive)	62.2 µM (inactive)	> 100 µM (inactive)	93.8 µM (inactive)	28		86.3 µM (inactive)	51.9 µM (inactive)	30 µM (inactive)	40.9 µM (inactive)	29.4 µM (inactive)	51.5 µM (inactive)	78 µM (inactive)	31.8 µM (inactive)
COc1cc(OC2OC(COC(=O)c3cc(O)c(O)c(O)c3)C(O)C(O)C2O)ccc1O (stereo not given)	> 100 µM (inactive)	> 100 µM (inactive)	84.1 µM (inactive)	33.2 µM (inactive)	> 100 µM (inactive)	> 100 µM (inactive)		93.1 µM (inactive)	> 100 µM (inactive)	> 100	> 100 µM (inactive)	32.7 µM (inactive)	> 100 µM (inactive)	55.3 µM (inactive)	42.2 µM (inactive)	53.8 µM (inactive)	> 100 µM (inactive)	40.3 µM (inactive)	> 100 µM (inactive)
C[C@H](CCC(=O)O)[C@H]1CC[C@H]2[C@@H]3[C@H](O)C[C@@H]4C[C@H](O)CC[C@]4(C)[C@H]3CC[C@]12C [CHENODIOL]	42.6 µM (inactive)	33.8 µM (inactive)		21.4 µM (inactive)	44.7 µM (inactive)	41.8 µM (inactive)	36.6 µM (inactive)	34 µM (inactive)	36.3 µM (inactive)	32.1	43.8 µM (inactive)	35.6 µM (inactive)	33.8 µM (inactive)	51.9 µM (inactive)	33.1 µM (inactive)	30.8 µM (inactive)	69.5 µM (inactive)	41.7 µM (inactive)	24.7 µM (inactive)
